Laboratory results as given in article PMC6487875 (Biochemistry, 2018).

Tests used:
[1] = molecular target: T1, GOT1 (glutamate oxaloacetate transaminase 1, aspartate aminotransferase 1) (Homo sapiens, UniProt P17174); assay: GLOX/HRP-coupled GOT1 enzyme assay; assay type: biochemical
[2] = molecular target: T1, GOT1 (glutamate oxaloacetate transaminase 1, aspartate aminotransferase 1); assay: GLOX/HRP-coupled enzyme kinetics; assay type: biochemical
[3] = molecular target: T1, GOT1 (glutamate oxaloacetate transaminase 1, aspartate aminotransferase 1); assay: X-ray crystal structure, […] Å; assay type: binding

T1 sequence (P17174 2-413): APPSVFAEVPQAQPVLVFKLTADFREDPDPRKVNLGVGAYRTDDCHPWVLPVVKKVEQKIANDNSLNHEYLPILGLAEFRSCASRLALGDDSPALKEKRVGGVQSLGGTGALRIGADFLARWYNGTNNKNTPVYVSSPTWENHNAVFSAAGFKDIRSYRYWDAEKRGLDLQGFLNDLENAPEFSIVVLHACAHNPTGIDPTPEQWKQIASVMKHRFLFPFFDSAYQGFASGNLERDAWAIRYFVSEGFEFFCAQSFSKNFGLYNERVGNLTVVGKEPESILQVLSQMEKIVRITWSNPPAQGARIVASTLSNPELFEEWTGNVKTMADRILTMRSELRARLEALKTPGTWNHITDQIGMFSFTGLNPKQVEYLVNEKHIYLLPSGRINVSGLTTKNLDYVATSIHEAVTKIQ

For O=C(Nc1ccccc1)N1CCN(c2cccc3[nH]ccc23)CC1 [iGOT1-01], the IC50 [1] was 11.3 µM.
O=C(O)CCC(=O)C(=O)O [α-ketoglutarate] was tested, and the Km [2] was ~ 0.5 mM.
With Cc1ncc(COP(=O)(O)O)c(C=O)c1O [PLP] the “X-ray crystal structure, 2.10 Å” value [3] was “The WT-GOT1 structure is a homodimer, each of which contains PLP”.
